Test results as given in PubChem BioAssay AID1259407 (Chemical Carcinogenesis Research Information System (CCRIS), 2018).
Calls of active or inactive are those of the source. How the calls were made is not given here.

System: CCRIS mutagenicity, Ames/micronucleus/aberration tests
Assay: CCRIS mutagenicity studies
[1] = Test System: AMES SALMONELLA TYPHIMURIUM, Strain/Indicator: TA100, Metabolic Activation: HAMSTER, LIVER, S-9, AROCLOR 1254 (10%), Method: PREINCUBATION
[2] = Test System: AMES SALMONELLA TYPHIMURIUM, Strain/Indicator: TA100, Metabolic Activation: NONE, Method: PREINCUBATION
[3] = Test System: AMES SALMONELLA TYPHIMURIUM, Strain/Indicator: TA100, Metabolic Activation: NONE, Method: STANDARD PLATE
[4] = Test System: AMES SALMONELLA TYPHIMURIUM, Strain/Indicator: TA100, Metabolic Activation: RAT, LIVER, S-9, AROCLOR 1254 (10%), Method: PREINCUBATION
[5] = Test System: AMES SALMONELLA TYPHIMURIUM, Strain/Indicator: TA1535, Metabolic Activation: HAMSTER, LIVER, S-9, AROCLOR 1254 (10%), Method: PREINCUBATION
[6] = Test System: AMES SALMONELLA TYPHIMURIUM, Strain/Indicator: TA1535, Metabolic Activation: NONE, Method: PREINCUBATION
[7] = Test System: AMES SALMONELLA TYPHIMURIUM, Strain/Indicator: TA1535, Metabolic Activation: RAT, LIVER, S-9, AROCLOR 1254 (10%), Method: PREINCUBATION
[8] = Test System: AMES SALMONELLA TYPHIMURIUM, Strain/Indicator: TA98, Metabolic Activation: NONE, Method: STANDARD PLATE
[9] = Test System: AMES SALMONELLA TYPHIMURIUM, Strain/Indicator: TA98, Metabolic Activation: RAT, LIVER, S-9, AROCLOR 1254, Method: STANDARD PLATE
[10] = Test System: AMES SALMONELLA TYPHIMURIUM, Strain/Indicator: TA100, Metabolic Activation: RAT, LIVER, S-9, AROCLOR 1254, Method: STANDARD PLATE
[11] = Test System: AMES SALMONELLA TYPHIMURIUM, Strain/Indicator: TA1537, Metabolic Activation: NONE, Method: STANDARD PLATE
[12] = Test System: AMES SALMONELLA TYPHIMURIUM, Strain/Indicator: TA98, Metabolic Activation: NONE, Method: PREINCUBATION
[13] = Test System: MOUSE LYMPHOMA, Strain/Indicator: L5178Y (TK+/TK-), Metabolic Activation: NONE, Method: SUSPENSION/PLATE

ClC(Cl)(Cl)C1CO1 (centres undefined)
mutagenic call [1]: active; positive | mutagenic call [2]: active; positive | mutagenic call [3]: active; positive | mutagenic call [4]: active; positive | mutagenic call (Test System: AMES SALMONELLA TYPHIMURIUM, Strain/Indicator: TA104, Metabolic Activation: NONE, Method: STANDARD PLATE): active; positive | mutagenic call [5]: inactive; negative | mutagenic call [6]: active; positive | mutagenic call [7]: inactive; negative | mutagenic call (Test System: AMES SALMONELLA TYPHIMURIUM, Strain/Indicator: TA4001, Metabolic Activation: NONE, Method: STANDARD PLATE): active; positive | mutagenic call (Test System: AMES SALMONELLA TYPHIMURIUM, Strain/Indicator: TA4006, Metabolic Activation: NONE, Method: STANDARD PLATE): active; positive

COC(=O)C12OC1(C)C(C(C)C)OC2=O (centres undefined)
mutagenic call (Test System: AMES SALMONELLA TYPHIMURIUM, Strain/Indicator: TA98, Metabolic Activation: NONE, Method: DISK ASSAY): active; positive | mutagenic call [8]: active; positive | mutagenic call (Test System: AMES SALMONELLA TYPHIMURIUM, Strain/Indicator: TA98, Metabolic Activation: RAT, LIVER, S-9, AROCLOR 1254, Method: DISK ASSAY): active; positive | mutagenic call [9]: active; positive | mutagenic call [3]: inactive; negative | mutagenic call [10]: active; positive

CN(C)CCNC(=O)c1ccc2nc3ccccc3c(N)c2c1
mutagenic call [11]: inactive; negative

Nc1ccc(Cl)c(C(F)(F)F)c1
mutagenic call [8]: inactive; negative | mutagenic call [9]: inactive; negative | mutagenic call [3]: inactive; negative | mutagenic call [10]: inactive; negative | mutagenic call (Test System: AMES SALMONELLA TYPHIMURIUM, Strain/Indicator: TA1535, Metabolic Activation: NONE, Method: STANDARD PLATE): inactive; negative | mutagenic call (Test System: AMES SALMONELLA TYPHIMURIUM, Strain/Indicator: TA1535, Metabolic Activation: RAT, LIVER, S-9, AROCLOR 1254, Method: STANDARD PLATE): inactive; negative | mutagenic call [11]: inactive; negative | mutagenic call (Test System: AMES SALMONELLA TYPHIMURIUM, Strain/Indicator: TA1537, Metabolic Activation: RAT, LIVER, S-9, AROCLOR 1254, Method: STANDARD PLATE): inactive; negative | mutagenic call (Test System: AMES SALMONELLA TYPHIMURIUM, Strain/Indicator: TA1538, Metabolic Activation: NONE, Method: STANDARD PLATE): inactive; negative | mutagenic call (Test System: AMES SALMONELLA TYPHIMURIUM, Strain/Indicator: TA1538, Metabolic Activation: RAT, LIVER, S-9, AROCLOR 1254, Method: STANDARD PLATE): inactive; negative

O=[N+]([O-])c1ccc2ccc3cc4c(c5ccc1c2c35)[C@H](O)[C@@H](O)C=C4
mutagenic call (Test System: AMES SALMONELLA TYPHIMURIUM, Strain/Indicator: TA98(1,8-DNP6), Metabolic Activation: NONE): active; positive | mutagenic call (Test System: AMES SALMONELLA TYPHIMURIUM, Strain/Indicator: TA98(1,8-DNP6), Metabolic Activation: RAT, LIVER, S-9, AROCLOR 1254): active; positive | mutagenic call (Test System: AMES SALMONELLA TYPHIMURIUM, Strain/Indicator: TA98(NR), Metabolic Activation: NONE): active; positive | mutagenic call (Test System: AMES SALMONELLA TYPHIMURIUM, Strain/Indicator: TA98(NR), Metabolic Activation: RAT, LIVER, S-9, AROCLOR 1254): active; positive | mutagenic call (Test System: AMES SALMONELLA TYPHIMURIUM, Strain/Indicator: TA98, Metabolic Activation: NONE): active; positive | mutagenic call (Test System: AMES SALMONELLA TYPHIMURIUM, Strain/Indicator: TA98, Metabolic Activation: RAT, LIVER, S-9, AROCLOR 1254): active; positive | mutagenic call (Test System: CHINESE HAMSTER OVARY, Strain/Indicator: CHO-K1-BH4 (HGPRT), Metabolic Activation: NONE): inactive; negative | mutagenic call (Test System: CHINESE HAMSTER OVARY, Strain/Indicator: CHO-K1-BH4 (HGPRT), Metabolic Activation: RAT, LIVER, S-9, 3-METHYLCHOLANTHRENE): inactive; negative

C=CC(=O)OCCOCCOCCOCCOC(=O)C=C
mutagenic call (Test System: AMES SALMONELLA TYPHIMURIUM, Strain/Indicator: TA98, Metabolic Activation: HAMSTER, LIVER, S-9, AROCLOR 1254 (10%), Method: PREINCUBATION): inactive; negative | mutagenic call [12]: inactive; negative | mutagenic call (Test System: AMES SALMONELLA TYPHIMURIUM, Strain/Indicator: TA98, Metabolic Activation: RAT, LIVER, S-9, AROCLOR 1254 (10%), Method: PREINCUBATION): inactive; negative | mutagenic call [1]: inactive; negative | mutagenic call [2]: inactive; negative | mutagenic call [4]: inactive; negative | mutagenic call [5]: inactive; negative | mutagenic call [6]: inactive; negative | mutagenic call [7]: inactive; negative | mutagenic call (Test System: AMES SALMONELLA TYPHIMURIUM, Strain/Indicator: TA1537, Metabolic Activation: HAMSTER, LIVER, S-9, AROCLOR 1254 (10%), Method: PREINCUBATION): inactive; negative | mutagenic call (Test System: AMES SALMONELLA TYPHIMURIUM, Strain/Indicator: TA1537, Metabolic Activation: NONE, Method: PREINCUBATION): inactive; negative | mutagenic call (Test System: AMES SALMONELLA TYPHIMURIUM, Strain/Indicator: TA1537, Metabolic Activation: RAT, LIVER, S-9, AROCLOR 1254 (10%), Method: PREINCUBATION): inactive; negative | mutagenic call (Test System: CHINESE HAMSTER OVARY, Strain/Indicator: CHO-K1-BH4 (HGPRT)/6-THIOGUANINE, Metabolic Activation: NONE, Method: SUSPENSION/PLATE): active; positive | mutagenic call (Test System: CHINESE HAMSTER OVARY, Strain/Indicator: CHO-K1-BH4 (HGPRT), Metabolic Activation: NONE, Method: MONOLAYER): active; positive | mutagenic call (Test System: CHINESE HAMSTER OVARY, Strain/Indicator: CHO-K1-BH4 (HGPRT), Metabolic Activation: NONE, Method: SUSPENSION/PLATE): active; positive | mutagenic call [13]: active; positive

O=c1oc2c(O)c(O)cc3c(=O)oc4c(O)c(O)cc1c4c23
mutagenic call [12]: inactive; negative | mutagenic call (Test System: AMES SALMONELLA TYPHIMURIUM, Strain/Indicator: TA98, Metabolic Activation: RAT LIVER S-9, Method: PREINCUBATION): inactive; negative | mutagenic call [2]: inactive; negative | mutagenic call (Test System: AMES SALMONELLA TYPHIMURIUM, Strain/Indicator: TA100, Metabolic Activation: RAT LIVER S-9, Method: PREINCUBATION): inactive; negative | mutagenic call (Test System: Ames Salmonella typhimurium, Strain/Indicator: TA102, Metabolic Activation: None, Method: Preincubation): inactive; negative | mutagenic call (Test System: Ames Salmonella typhimurium, Strain/Indicator: TA102, Metabolic Activation: Rat, Liver, S-9, Aroclor 1254 in 0.154 M KCl, Method: Preincubation): inactive; negative | mutagenic call (Test System: E. COLI, Strain/Indicator: WP2, Metabolic Activation: RAT, LIVER, S-9, AROCLOR 1254, Method: STANDARD PLATE): inactive; negative | mutagenic call [13]: inactive; negative. reevaluation of results: negative | mutagenic call (Test System: MOUSE LYMPHOMA, Strain/Indicator: L5178Y (TK+/TK-), Metabolic Activation: RAT, LIVER, S-9, AROCLOR 1254, Method: SUSPENSION/PLATE): inactive; negative. reevaluation of results: inconclusive

CC(C)NC(=O)/C=C/c1ccc([N+](=O)[O-])o1
mutagenic call [12]: active; positive | mutagenic call (Test System: CHINESE HAMSTER V-79, Strain/Indicator: V-79/6-THIOGUANINE, Metabolic Activation: NONE, Method: STANDARD PLATE): active; positive

Cc1c2ccccc2c(CBr)c2c1ccc1ccccc12
mutagenic call [8]: active; positive | mutagenic call [3]: active; positive
